Laboratory results as given in US4426447A, “Homocitric acid oligoriboside derivative for prevention of dental caries” (Zaidan Hojin Biseibutsu Kagaku Kenkyu Kai, priority 1980, dated 1984).
Structures can show the parent of a compound that is named as a salt. Where two headings read alike, the source gives them in different places.

What was measured:
[1] = test system: Streptococcus mutans ATCC 27607; assay: Inhibition of Streptococcus mutans adherence (adhered plaque turbidity); type: cell-based; conditions: for Turbidity (600 nm): 37° C., 14 hours; for inhibition at 50 µg/mL / inhibition at 100 µg/mL: Streptococcus mutans, ATCC27607, 14 h
Method: Heart Infusion bouillon (Difco) containing various concentrations of sucrose was autoclaved and added aseptically with various amounts of ribocitrin aqueous solution (filter-sterilized) or sterile water for control (final volume is 3.0 ml and final concentrations are shown in Table 1). Each tube was inoculated with 1×10^5 CFU of Streptococcus mutans ATCC 27607 grown overnight at 37° C. in Brain Heart Infusion bouillon (Difco) and incubated anaerobically in a candle jar at 37° C. for 14 hours. The tube was positioned at an angle 30° from the horizontal. Nonadherent cells were removed by pouring off the broth and the test tube was washed three times with 3 ml of 5 mM phosphate buffer (pH 6.0). The adhered plaque (insoluble dextran and cellular aggregates formed as a result of insoluble dextran production) was suspended in 3 ml of phosphate buffer described above by mechanical stirring and by scraping the surface with a glass rod. Turbidity of the suspension was measured at 600 nm.

[2] = Solubility (characterizing properties); type: physicochemical; conditions: sodium salt
Text: Ribocitrin in the form of its sodium salt has the following characterizing properties:
2. Soluble in water; insoluble in organic solvents.

dextransucrase = assay: Inhibitory activity to dextransucrase (turbidity at 600 nm); type: biochemical, Streptococcus mutans ATCC 27607; conditions: qualitative statement; curve only in FIG. 4
Method: Dextransucrase was prepared as follows: Streptococcus mutans ATCC 27607 was inoculated to Brain Heart Infusion bouillon (Eiken Chemical Co.) and grown overnight at 37° C. The culture supernatant obtained by centrifugation was precipitated with ammonium sulfate at 50% saturation. The precipitated enzyme was desalted and purified by conventional procedures.

| Compound | Turbidity (600 nm) ([1]; 50 μg/ml ribocitrin sodium salt, 0.5% sucrose) | Turbidity (600 nm) ([1]; 50 μg/ml ribocitrin sodium salt, 1.0% sucrose) | Turbidity (600 nm) ([1]; 50 μg/ml ribocitrin sodium salt, 2.0% sucrose) | Turbidity (600 nm) ([1]; 100 μg/ml ribocitrin sodium salt, 0.5% sucrose) | Turbidity (600 nm) ([1]; 100 μg/ml ribocitrin sodium salt, 1.0% sucrose) | Turbidity (600 nm) ([1]; 100 μg/ml ribocitrin sodium salt, 2.0% sucrose) | inhibition at 50 µg/mL ([1]; read-out: Percent inhibition, 50 μg/ml ribocitrin sodium salt, 0.5% sucrose, 37° C.) | inhibition at 50 µg/mL ([1]; read-out: Percent inhibition, 50 μg/ml ribocitrin sodium salt, 1.0% sucrose, 37° C.) | inhibition at 50 µg/mL ([1]; read-out: Percent inhibition, 50 μg/ml ribocitrin sodium salt, 2.0% sucrose, 37° C.) | inhibition at 100 µg/mL ([1]; read-out: Percent inhibition, 100 μg/ml ribocitrin sodium salt, 0.5% sucrose, 37° C.) | inhibition at 100 µg/mL ([1]; read-out: Percent inhibition, 100 μg/ml ribocitrin sodium salt, 1.0% sucrose, 37° C.) | inhibition at 100 µg/mL ([1]; read-out: Percent inhibition, 100 μg/ml ribocitrin sodium salt, 2.0% sucrose, 37° C.) | Solubility in organic solvents ([2]; organic solvents) | Solubility in water ([2]; water) | Inhibitory activity toward dextransucrase (in words) (dextransucrase) |
| --- | --- | --- | --- | --- | --- | --- | --- | --- | --- | --- | --- | --- | --- | --- | --- |
| O=C(O)CC[C@@](CC(=O)O)(O[C@H]1O[C@H](CO)[C@@H](O[C@H]2O[C@H](CO)[C@@H](O)[C@H]2O[C@H]2O[C@H](CO)[C@@H](O)[C@H]2O)[C@H]1O)C(=O)O [Ribocitrin (sodium salt)] | 0.510 | 0.340 | 0.333 | 0.249 | 0.173 | 0.132 | 17% | 43% | 33% | 60% | 71% | 73% | insoluble | Soluble |  |
| O=C(O)CC[C@@](CC(=O)O)(O[C@H]1O[C@H](CO)[C@@H](O[C@H]2O[C@H](CO)[C@@H](O)[C@H]2O[C@H]2O[C@H](CO)[C@@H](O)[C@H]2O)[C@H]1O)C(=O)O [ribocitrin, 2-(S)-[O-α-D-ribofuranosyl-(1→2)-O-α-D-ribofuranosyl-(1→3)-α-D-ribofuranosyloxy]-1,2,4-butanetricarboxylic acid] |  |  |  |  |  |  |  |  |  |  |  |  |  |  | effective inhibitors of dextransucrase |
